From article PMC7497180 (Chembiochem, 2020)
Entries after “also recorded” stand apart in the source; their conditions may differ.

Key:
[1] = system: THP1‐NTR^+ cells; assay: CD86-based cell assay; settings: for Selectivity window THP1^wt / THP1‐NTR^+: CD86 EC50 ratio; for EC50: read-out: THP1‐NTR^+ CD86^+ EC50, 72 h
[2] = system: THP1‐NTR^+ cells; assay: MTS cell viability assay, NTR-expressing cells; format: cell-based
[3] = target: T1, nitroreductase NfsB (NTR) (Escherichia coli, UniProt P38489); format: biochemical, E. coli
T1 sequence (P38489 1-217): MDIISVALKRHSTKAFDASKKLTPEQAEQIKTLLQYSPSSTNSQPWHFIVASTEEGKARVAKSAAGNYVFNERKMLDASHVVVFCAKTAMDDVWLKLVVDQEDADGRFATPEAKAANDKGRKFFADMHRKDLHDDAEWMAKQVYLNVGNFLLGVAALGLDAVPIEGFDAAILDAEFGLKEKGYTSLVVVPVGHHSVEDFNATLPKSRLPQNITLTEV

[4] = system: THP1‐NTR^+ cells; assay: Colony forming unit; format: cell-based; settings: for Selectivity window THP1^wt / THP1‐NTR^+: CFU EC50 ratio; for EC50: read-out: THP1‐NTR^+ CFU EC50
[5] = system: mixtures of the cell lines THP1^wt and THP1‐NTR^+; assay: Bystander effect in the CFU assay; format: cell-based; settings: at 1.0 μM
[6] = system: THP1^wt cells; assay: CD86-based cell assay; settings: read-out: THP1^wt CD86^+ EC50, 72 h
[7] = system: THP1^wt cells; assay: Colony forming unit
[8] = system: THP1^wt cells; assay: MTS cell viability assay, non-transfected cells; format: cell-based
[9] = target: LSD1 (Homo sapiens, UniProt O60341); settings: cited from earlier work
[10] = system: THP1‐NTR^+ cells; assay: Luminescent measurement of NTR activity in cells, NTR-expressing; format: cell-based; settings: 25 μM, 60 min
[11] = system: THP1^wt cells; assay: Luminescent measurement of NTR activity in cells, non-transfected; format: cell-based; settings: 25 μM, 60 min
[12] = system: recombinant NTR; assay: Luminescent probe activation by recombinant NTR in vitro; format: biochemical, E. coli; settings: low NTR concentrations (18–30 nM)
[13] = read-out: THP1^wt CFU EC50, 10 days
[14] = 240 h, read-out: THP1^wt CFU EC50

Compound	Selectivity window THP1^wt / THP1‐NTR^+ [1]	cytotoxicity in THP1‐NTR^+ (in words) [2]	Selectivity window THP1^wt / THP1‐NTR^+ [4]	EC50 ([4]; 10 days)	EC50 ([6]; FACS)	EC50 [7, 13]	EC50 ([1]; Homo sapiens)	cytotoxicity in THP1^wt (in words) [8]	EC50 ([4]; 240 h)	EC50 ([6]; Homo sapiens)	EC50 [7, 14]	probe conversion in NTR-expressing THP1 cells (in words) [10]	probe conversion in nontransfected THP1^wt cells (in words) [11]	also measured
(1‐Methyl‐2‐nitro‐1H‐imidazol‐5‐yl)methyl((2‐methoxypyridin‐3‐yl)methyl) ((1S*,2R*)‐2‐phenylcyclopropyl)carbamate [1 f]	66±8	cytotoxic effects	14±4	330 ± 70 nM	376 ± 17 nM	4400 ± 700 nM	–	–	–	–	–	–	–	EC50 ([1]; FACS): 5.7 ± 0.4 nM; % conversion to 1a (fragmentation) ([3]; HPLC of Fmoc derivative 3 after NTR reaction, Figure 3C): 59.3%; factor of prodrug fragmentation relative to 4-nitrobenzyl 1 b ([3]; calculated from fragmentation data, Figure 3D): 17 x; bystander effect in the CFU assay [5]: no bystander effect; effect on colony formation in THP1^wt (in words) [7]: no effect in THP1^wt up to 2 μM
COc1ncccc1CN[C@@H]1C[C@H]1c1ccccc1 (racemic) [1 a, trans‐N‐((2‐Methoxypyridin‐3‐yl) methyl)‐2‐phenylcyclopropan‐1‐amine, reference compound]	–	no cytotoxic effect	–	–	–	–	4.1 ± 0.4 nM	no cytotoxic effect	40 ± 10 nM	3 ± 0.3 nM	60 ± 20 nM	–	–	EC50 ([7]; read-out: colony formation EC50): 68 ± 12 nM
COc1ncccc1CN[C@H]1[C@@H](C)[C@@H]1c1ccccc1 (relative stereo) [2 a, (1S*,2S*,3R*)‐N‐((2‐Methoxypyridin‐3‐yl) methyl)‐2‐methyl‐3‐phenylcyclo propan‐1‐amine]	1±1	no cytotoxic effect	1±1	–	–	–	15300 nM	no cytotoxic effect	32400 ± 1700 nM	17600 nM	45500 ± 3200 nM	–	–	THP1‐NTR^+ CD86^+ cells ([1]; at 10 μM): 34%; LSD1 inhibition (in words) [9]: lack inhibitory activity on LSD1 in the low micromolar range; also recorded: inactive on LSD1 below 10 μM
N#Cc1nc2ccc(OCc3ccc([N+](=O)[O-])s3)cc2s1 [compound 4, 6‐((5‐Nitrothiophen‐2‐yl)methoxy)benzo[d]thiazole‐2‐carbonitrile]	–	–	–	–	–	–	–	–	–	–	–	converted to luciferin	no activation	–
(1‐Methyl‐2‐nitro‐1H‐imidazol‐5‐yl)methyl((2‐methoxypyridin‐3‐yl)methyl) ((1S*,2S*,3R*)‐2‐methyl‐3‐phenylcyclopropyl)carbamate [2 f]	–	cytotoxicity	>58±13	900 ± 200 nM	> 50000 nM	> 50000 nM	–	–	–	–	–	–	–	–
CN(CCN(C)C(=O)Oc1ccc2nc(C#N)sc2c1)C(=O)OCc1ccc([N+](=O)[O-])s1 [compound 5, 2‐Cyanobenzo[d]thiazol‐6‐yl ((5‐nitrothiophen‐2‐yl)methyl) ethane‐1,2‐diylbis(methyl carbamate)]	–	–	–	–	–	–	–	–	–	–	–	converted to luciferin	no activation	factor by which conversion exceeds that of probe 4 [12]: at least 5
